Results published in PubChem BioAssay (NCI).
Where “and” joins values, the source holds several entries; their conditions need not be identical. Identical values can stand only once.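 Five compound concentrations were applied to cells in 96-well plates for 48 hours; endpoints were derived by simple linear interpolation of the resulting dose-response curve. GI50 = concentration required for 50% inhibition of growth. The concentration for full growth arrest is given as TGI.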

How the values were obtained:
Test in all cases: NCI anticancer screen, dose series, 48 h
[1] = test system: RXF 393 renal
[2] = test system: COLO 205 colon
[3] = test system: DU-145 prostate
[4] = test system: M14 melanoma
[5] = test system: HCT-15 colon
[6] = test system: OVCAR-4 ovarian
[7] = test system: HOP-62 NSCLC
[8] = test system: SW-620 colon
[9] = test system: SK-MEL-5 melanoma
[10] = test system: HS 578T breast
[11] = test system: OVCAR-3 ovarian
[12] = test system: OVCAR-5 ovarian
[13] = test system: UACC-62 melanoma

| Compound | TGI [1] [µM] | TGI [2] | TGI [3] | TGI [4] | TGI [5] | TGI [6] [µM] | TGI [7] | TGI [8] [µM] | TGI [9] | TGI [10] [µM] | TGI [11] | TGI [12] [µM] | TGI [13] [µM] | GI50 [5] [µM] | GI50 [6] | GI50 [9] | GI50 [10] |
| --- | --- | --- | --- | --- | --- | --- | --- | --- | --- | --- | --- | --- | --- | --- | --- | --- | --- |
| CN=c1sc2c(n1C)C(=O)c1ccccc1C2=O | 9.01 | 11.9 µM | 3.12 µM | 3.01 µM | 4.82 µM | 11 | 3.39 µM | 4.81 | 6.85 µM | 6.16 | 11.3 µM | 9.26 | – | – | – | – | – |
| CC(C)(CN1CCCCC1)C(=O)/C=C/c1ccc(Br)cc1 | 4.48 | 5.56 µM | – | 4.75 µM | > 24.7 µM | 19.3 | 9.82 µM | 6.83 | 12.6 µM | – | 5.51 µM | 11.8 | > 22.9 | – | – | – | – |
| CCOC(=O)c1c(NC(=O)c2ccccc2)c(C#N)c2n1CCCCC2 | > 100 | > 100 µM | > 100 µM | > 100 µM | > 100 µM | > 100 | > 100 µM | – | > 100 µM | > 100 | – | > 100 | > 100 | – | – | – | – |
| COC(=O)[C@@H]1CO[C@H](C(C)(C)C)N1C(=O)N1C=CC(=O)C[C@H]1C | > 100 | > 100 µM | > 100 µM | > 100 µM | – | – | > 100 µM | > 100 | > 100 µM | > 100 | > 100 µM | > 100 | > 100 | – | – | – | – |
| Cc1c(C)c(S(=O)(=O)N(CCCCN)OCCCN)c(C)c2c1OC(C)(C)CC2 | – | > 100 µM | 57.7 µM | 98.3 µM | 46.9 µM | 30 | 32.6 µM | > 100 | > 100 µM | 36.1 | 30.6 µM | 34.7 | 72.2 | – | – | – | – |
| NC1=NC2(COC(c3ccccc3)(c3ccccc3)c3ccccc3)OC(COC(c3ccccc3)(c3ccccc3)c3ccccc3)C(O)C2O1 (stereo unspecified) | > 100 | > 100 µM | > 100 µM | > 100 µM | > 100 µM | – | > 100 µM | > 100 | > 100 µM | – | > 100 µM | > 100 | > 100 | – | – | – | – |
| O=c1[nH]c(N/N=C\C(O)C(O)C(O)C(O)CO)nc2ccccc12 (stereo unspecified) | – | > 100 µM | > 100 µM | > 100 µM | > 100 µM | – | > 100 µM | > 100 | > 100 µM | > 100 | > 100 µM | > 100 | > 100 | – | – | – | – |
| O=C1CC(c2ccc(Cl)cc2)=Nc2ccccc2N1 | 61.4 | > 100 µM | – | > 100 µM | > 100 µM | > 100 | > 100 µM | 47.9 | > 100 µM | – | > 100 µM | > 100 | > 100 | – | – | – | – |
| COC(=O)[C@@]12OC[C@]34C([C@@H](O)C1O)[C@@]1(C)CC(=O)C(OC(=O)CC(C)C(F)(F)F)=C(C)C1C[C@H]3OC(=O)[C@H](O)[C@H]42 (stereo partly specified) | 23.6 | 30 µM | – | 9.76 µM | > 62.5 µM | > 62.5 | > 62.5 µM | > 62.5 | 22.2 µM | – | – | > 62.5 | 4.37 | – | – | – | – |
| CCOC(=O)c1cn(CC)c(=O)n2c1nc1ccccc12 | > 100 | > 100 µM | > 100 µM | > 100 µM | > 100 µM | > 100 | > 100 µM | > 100 | > 100 µM | – | > 100 µM | > 100 | > 100 | – | – | – | – |
| NNC(=O)C(=O)NN=C(C(Cl)(Cl)CO)C(Cl)(Cl)CO | 72.7 | > 100 µM | – | 94 µM | 75.5 µM | > 100 | > 100 µM | 40.3 | > 100 µM | – | 68 µM | 92.2 | > 100 | – | – | – | – |
| CCN1/C(=C/C#C/C(C)=C\c2sc3ccc(Cl)cc3[n+]2CC)Sc2ccc(Cl)cc21 | 21.3 | 3.21 µM | 15.5 µM | 16.1 µM | > 100 µM | > 100 | 29 µM | – | 5.26 µM | 28.8 | – | 21.3 | 13.6 | – | – | – | – |
| COc1ccc(-c2c(C3=NCCCN3)nnn2-c2ccccc2)cc1 | > 100 | > 100 µM | – | > 100 µM | > 100 µM | > 100 | > 100 µM | > 100 | > 100 µM | – | > 100 µM | > 100 | > 100 | – | – | – | – |
| C1CSCCSCCCS[C@@H]2CCCCC2SC1 (stereo partly specified) | > 100 | > 100 µM | – | > 100 µM | 28.8 µM | > 100 | > 100 µM | 53.5 | > 100 µM | – | > 100 µM | > 100 | > 100 | – | – | – | – |
| Cc1cc2nc3c(C#N)c(-c4ccccc4)/c(=C\Nc4ccc(F)cc4)c(=O)n3c2cc1C | > 100 | > 100 µM | – | > 100 µM | > 100 µM | > 100 | > 100 µM | > 100 | > 100 µM | – | > 100 µM | > 100 | – | – | – | – | – |
| C[C@H]1CC[C@@]2(OC1)O[C@H]1C[C@H]3[C@@H]4CC[C@@H]5C[C@@H](OC6OC(CO)C(O)C(O)C6OC6OC(CO)C(O)C(O)C6O)CC[C@]5(C)[C@H]4CC[C@]3(C)[C@H]1[C@@H]2C (stereo partly specified) | – | 3.55 µM | 4.1 µM | 3.75 µM | 3.67 µM | 4.08 | 3.99 µM | 3.4 | 3.93 µM | 4.47 | 3.88 µM | 3.45 | 4.16 | – | – | – | – |
| COc1cc([C@@H]2c3cc4c(cc3[C@@H](Nc3ccc(NC(=O)c5cc([N+](=O)[O-])cn5C)cc3)[C@H]3COC(=O)[C@H]23)OCO4)cc(OC)c1O | > 100 | 2.61 µM and 1.3 µM | 0.0772 µM and 0.0578 µM | 2.47 µM and 4.94 µM | 1.54 µM and 2.48 µM | > 100 | 0.174 µM and 0.127 µM | – | 0.183 µM and 0.316 µM | > 100 | 10.7 µM and 3.15 µM | 10.4 | – | 0.192 | 11.6 µM and 4.09 µM | 0.0291 µM and 0.0847 µM | 2.11 µM and 0.756 µM |
| O=c1cc(Nc2cccc(O)c2)[nH]c(=O)[nH]1 | > 100 | > 100 µM | – | > 100 µM | > 100 µM | > 100 | > 100 µM | > 100 | > 100 µM | > 100 | > 100 µM | > 100 | > 100 | – | – | – | – |
| CCOC(=O)/C(=C/c1ccccn1)C(=O)c1ccccc1 | 24.2 | 28.3 µM | – | 29.3 µM | 29.3 µM | 36.8 | 33 µM | 32.6 | 28.6 µM | – | 27.4 µM | 33.5 | 24 | – | – | – | – |
